Measured values reported in patent publication US11814652B2, “Pluripotent stem cell differentiation-promoting agent” (Oriental Yeast Co., Ltd., priority 2018, dated 2023).

Experiments:
[1] = test system: iPS cells 201B7 strain; assay: Cell number during mesodermal differentiation-induction in medium with β-NMN (Example 3); assay type: cell-based, human; conditions: mesodermal differentiation-inducing medium containing β-NMN 0.1, 0.25 or 1 mM; 7th day after seeding; versus medium not containing β-NMN
Protocol: The effects of β-NMN on the mesodermal differentiation-induction of iPS cells were examined. The 201B7 strain was used as the iPS cells. The iPS cells were seeded in a 24-well plate coated with Matrigel (manufactured by Corning Incorporated) according to the manufacturer's protocol at 1×10^5 cells/well. The cells in the 24-well plate were cultured in a culture medium for iPS cells adjusted to have a final concentration of Rock inhibitor of 10 μM for 1 day. From the 1st day after seeding, the culture medium was replaced with a culture medium prepared by adjusting a mesoderm differentiation-inducing culture medium of “STEMdiff Trilineage Differentiation kit” (manufactured by STEMCELL Technologies) to have a final concentration of β-NMN of 0, 0.1, 0.25, or 1 mM for 1 day. The culture medium was replaced with a culture medium prepared by adjusting a mesodermal differentiation-inducing culture medium to have final concentrations of both β-NMN and Rock inhibitor of 10 μM only on the 1st day after seeding. Cells of the 7th day after seeding were sampled and the cell numbers were counted. As a result, the number of the cells cultured in the mesodermal differentiation-inducing culture medium containing β-NMN was larger than the number of the cells cultured in the medium not containing β-NMN.

[2] = test system: iPS cells 253G1 strain; assay: Cell number in endodermal differentiation-induction after undifferentiated culture with β-NMN (Example 5); assay type: cell-based; conditions: β-NMN 0.25 or 1 mM in culture medium for iPS cells before endodermal differentiation-induction; 7th day after seeding; versus no β-NMN
Protocol: The effects of culturing in the presence of β-NMN before induction of differentiation on the endodermal differentiation-induction of iPS cells was examined. As the iPS cells, the 253G1 strain was used. iPS cells seeded on a culture dish coated with Matrigel (manufactured by Corning Incorporated) according to the manufacturer's protocol were cultured in a culture medium prepared by adjusting a culture medium for iPS cells to have a final concentration of β-NMN 0, 0.25 or 1 mM, and a final concentration of Rock inhibitor of 10 μM for 1 day. From the 1st day after seeding, the culture medium was replaced every day with a culture medium obtained by removing the Rock inhibitor from the culture medium at the time of seeding. When the confluent reached 70 to 80%, the iPS cells were detached from the culture dish and collected. The collected iPS cells were seeded at 3×10^5 cells/well in a 24-well plate coated with Matrigel (manufactured by Corning Incorporated) according to the manufacturer's protocol. The cells in the 24-well plate were cultured for 1 day in a culture medium prepared by removing β-NMN from the culture medium when culturing in the culture dish and adjusting to have a final concentration of Rock inhibitor of 10 μM. […] Cells on the 7th day after seeding were sampled and the numbers of cells were counted.

[3] = test system: human iPS cell strain 201B7; assay: RT-PCR of marker expression in iPS cells cultured in E6 differentiation-inducing medium with β-NMN (Example 1); assay type: cell-based; conditions: 3rd and 7th day after seeding, β-NMN 0.25 or 1 mM in E6 medium, compared to cells cultured in the absence of β-NMN
Protocol: The effect of β-NMN on the differentiation of three germ layers of the iPS cells was examined. As the iPS cells, the human iPS cell strain 201B7 was used. A U-bottom shape 96-well plate “Nunclon Sphera 96 U-well plate” (manufactured by Thermo Fisher Scientific) was seeded with iPS cells at 10,000 cells/well, and cultured in an E6 culture medium (manufactured by Gibco) as a differentiation-inducing culture medium adjusted to have a final concentration of β-NMN of 0, 0.25 or 1 mM, and a final concentration of Rock inhibitor of 10 μM for 1 day. The Rock inhibitor was added to suppress Rho-dependent apoptosis. On the 1st and 5th days after seeding, the culture medium was replaced with a culture medium obtained by removing the Rock inhibitor from the culture medium at the time of seeding. Cells on the 3rd and 7th days after seeding were sampled and subjected to RT-PCR to investigate the expression levels of undifferentiated markers (Nanog, Sox2, Oct3/4, Lin28a, Klf4), endoderm markers (Sox17, AFP), mesoderm markers (MSX1, Brachyury) and ectodermal markers (PAX6). […] The expression level of each marker was evaluated by PCR using the obtained cDNA. […]

[4] = test system: iPS cells 201B7 strain; assay: Flow cytometry of Brachyury/CD56 after mesodermal differentiation-induction following undifferentiated culture with β-NMN (Example 6); assay type: cell-based, human; conditions: β-NMN 0.25 or 1 mM before mesodermal differentiation-induction; 5th or 7th day; versus absence of β-NMN
Protocol: The effects of culturing in the presence of β-NMN before induction of differentiation on the mesodermal differentiation-induction of iPS cells was examined. As the iPS cells, the 201B7 strain was used. The iPS cells were cultured in a culture dish in the same manner as in Example 5, and when the confluent reached 70 to 80%, the iPS cells were detached from the culture dish and collected. The collected iPS cells were seeded at 1×10^5 cells/well in a 24-well plate coated with Matrigel (manufactured by Corning Incorporated) according to the manufacturer's protocol. The cells in the 24-well plate were cultured for 1 day in a culture medium prepared by removing β-NMN from the culture medium when culturing in the culture dish and adjusting to have a final concentration of Rock inhibitor of 10 μM. From the 1st day after seeding, the medium was replaced every day with a culture medium for mesodermal differentiation-induction of “STEMdiff Trilineage Differentiation kit” (manufactured by STEMCELL Technologies). In the same manner as in Example 3, the cells sampled on the 5th or 7th day after seeding were stained with a fluorescently labeled anti-Brachyury antibody and a fluorescently labeled anti-CD56 antibody, and a flow cytometer was used to analyze the fluorescence intensity of the anti-Brachyury antibody and the fluorescence intensity of the anti-CD56 antibody in each sample. […]

## NC(=O)c1ccc[n+]([C@@H]2O[C@H](COP(=O)([O-])O)[C@@H](O)[C@H]2O)c1 [β-NMN, β-nicotinamide mononucleotide]
[1]
  number of the cells: larger
[2]
  cell number: no clear difference
[3]
  expression level of each undifferentiated marker (Nanog, Sox2, Oct3/4, Lin28a, Klf4): decreased
  expression level of the differentiated marker (Sox17, AFP, MSX1, Brachyury, PAX6): increased
[4]
  ratio of Brachyury-positive CD56-positive cells: no clear difference
